Assay results taken from PubChem BioAssay (NCI).
Several values for one entry are separate records, joined by “and”; a condition that tells them apart may be missing. Equal values may be shown once.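 48-hour exposure; five concentrations; linearly interpolated endpoints. GI50: concentration for 50% inhibition of growth. Definition used: TGI = concentration required for complete inhibition of growth.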

Experiments:
Test in all cases: DTP human tumour cell line panel, 48 h
HL-60(TB) leukemia = tested on: HL-60(TB) leukemia
LOX IMVI melanoma = tested on: LOX IMVI melanoma
HCT-116 colon = tested on: HCT-116 colon
CCRF-CEM leukemia = tested on: CCRF-CEM leukemia
SW-620 colon = tested on: SW-620 colon
IGROV1 ovarian = tested on: IGROV1 ovarian
NCI-H460 lung = tested on: NCI-H460 lung
OVCAR-8 ovarian = tested on: OVCAR-8 ovarian
SK-MEL-5 melanoma = tested on: SK-MEL-5 melanoma
MDA-MB-435 = tested on: MDA-MB-435

SMILES	GI50 (HL-60(TB) leukemia) [µM]	TGI (HL-60(TB) leukemia) [µM]	GI50 (LOX IMVI melanoma)	TGI (LOX IMVI melanoma) [µM]	GI50 (HCT-116 colon)	TGI (HCT-116 colon)	GI50 (CCRF-CEM leukemia)	TGI (CCRF-CEM leukemia) [µM]	GI50 (SW-620 colon)	TGI (SW-620 colon) [µM]	GI50 (IGROV1 ovarian)	TGI (IGROV1 ovarian) [µM]	GI50 (NCI-H460 lung)	TGI (NCI-H460 lung) [µM]	GI50 (OVCAR-8 ovarian)	TGI (OVCAR-8 ovarian) [µM]	GI50 (SK-MEL-5 melanoma) [µM]	TGI (SK-MEL-5 melanoma) [µM]	GI50 (MDA-MB-435) [µM]	TGI (MDA-MB-435) [µM]
O=C(CN1CCN(c2ccc(Cl)cc2)CC1)N1CCN(c2nnc(-c3ccccc3)c(-c3ccccc3)n2)CC1	2.33	> 100	7.26 µM	> 100	3.42 µM	> 100 µM	21.6 µM	> 100	38.9 µM	> 100	42.9 µM	> 100	4.97 µM	> 100	52.4 µM	> 100	2.11	8.31	7.25	> 100
CC(C)[C@@H]1CC[C@@H]2[C@@H]1[C@H](OC(=O)/C=C/c1ccccc1)[C@]1(C(C)C)C[C@@H](OC(=O)CO)[C@@]2(C)O1	8.07	18.4	5.36 µM	10.2	5.79 µM	11.3 µM	6.9 µM	15.2	6.26 µM	12.9	6.79 µM	12.5	6.15 µM	11.7	0.0259 µM	9.86	5.96	10.8	5.65	10.6
C[n+]1ccc(-c2c3nc(c(-c4ccc5c(ccc[n+]5C)c4)c4ccc([nH]4)c(-c4cc[n+](C)cc4)c4nc(c(-c5ccc6c(ccc[n+]6C)c5)c5ccc2[nH]5)C=C4)C=C3)cc1	9.19	17.2	> 50 µM	> 50	> 50 µM	> 50 µM	> 50 µM	> 50	> 50 µM	> 50	> 50 µM	> 50	16.9 µM	> 50	> 50 µM	> 50	17.6	> 50	12.9	36.9
NC[C@@](O)(c1ccc(Cl)cc1)c1ccc(-c2cn[nH]c2)cc1	1.7	4.13	1.59 µM	3.04	1.44 µM	3.19 µM	2.41 µM and 0.824 µM		2.13 µM and 1.56 µM		0.43 µM and 0.272 µM	1.46	3.08 µM and 2.83 µM	> 100	1.63 µM	3.43		> 100	1.81	3.61
O=C(Nc1ccc(Br)cc1F)c1cc(Br)ccc1O	0.59	3.59	0.668 µM	4.47	0.732 µM	4.28 µM	2.03 µM	> 44.4	1.14 µM	7.42	0.4 µM	15.3	0.5 µM	7.2	0.959 µM	15.4	0.289	1.19	0.846	5.63
CN1CCCCC1CCN1c2ccccc2Sc2ccc(S(C)=O)cc21 (configuration not stated)		> 100		> 100		> 100 µM		> 100		> 100		> 100		> 100		> 100		> 100		> 100
CCN1CCN(C(=O)[C@]23CCC(C)(C)C[C@@H]2C2=CC[C@@H]4[C@@]5(C)C/C(=C/c6cccnc6)C(=O)C(C)(C)[C@@H]5CC[C@@]4(C)[C@]2(C)CC3)CC1	0.443	3.34	1.36 µM	2.73	1.01 µM	2.22 µM	2.1 µM	9.02	1.78 µM	3.88	1.91 µM	4.16	1.39 µM	2.93	2.14 µM	5.54	1.63	3	1.48	3.11
CCCN1CCN(c2ccc3nc(-c4ccc5nc(-c6ccc(OCC)c(OCC)c6)[nH]c5c4)[nH]c3c2)CC1	0.339	2.74	0.198 µM	0.461	0.218 µM	1.19 µM	0.394 µM	3.07	0.207 µM	0.808	0.475 µM	2.42	0.387 µM	1.35	0.451 µM	2.16	0.424	1.77	0.532	1.81
COc1ccc(CC2C3=C(CCCC3)CCN2C)cc1 (configuration not stated)		> 100		> 100		> 100 µM		> 100		> 100		> 100		> 100		> 100		> 100		> 100
CC([O-])C(=O)[O-].NCC1CCC1CN.[Pt+4] (configuration not stated)	> 10	> 10	> 10 µM	> 10	> 10 µM	> 10 µM	4.39 µM	> 10	> 10 µM	> 10	> 10 µM	> 10	> 10 µM	> 10	> 10 µM	> 10	7.41	> 10	> 10	> 10
C/C(=N\NC(=O)c1ccncc1)c1ccc(O)cc1O	3.4	32.6	3.46 µM	> 100	3.16 µM	> 100 µM	2.08 µM	> 100	7.68 µM	> 100	4.89 µM	63.4	5 µM	> 100	2.93 µM	> 100	3.47	29.6	5.03	> 100
O=C(/C=C/c1cccnc1)c1ccccc1O	18.1	43	14.4 µM	30.8	16.8 µM	34.9 µM	22.7 µM	> 100	22.5 µM	63.2	20.1 µM	50	30.8 µM	> 100	31.5 µM	> 100	16.1	31.1	16.4	37
CSc1nc2c(c(=O)[nH]1)C(c1ccc(Cl)cc1)C1=C(N2)/C(=C/c2ccc(Cl)cc2)CNC1 (configuration not stated)	2.44	6.26	1.9 µM	3.81	1.72 µM	3.55 µM	2.55 µM	8.99	2.86 µM	10	2.56 µM	7.04	2.75 µM	7.61	2.7 µM	8.72	3.26	12.4	1.79	3.69
CC(=O)c1ccc(NCN2C(=O)c3ccccc3C2=O)cc1		> 100		> 100		> 100 µM		> 100		> 100		> 100		> 100		> 100		> 100		> 100
CC(=O)OCC1OC(n2c(-c3ccccc3)c(C)c(C)c(C#N)c2=S)C(OC(C)=O)C(OC(C)=O)C1OC(C)=O (configuration not stated)		> 100	14.1 µM and > 100 µM	> 100	11.4 µM and 40.1 µM	21.6 µM and > 100 µM	49.2 µM and > 100 µM	> 100	22.9 µM and > 100 µM	> 100		> 100		> 100	17.6 µM and > 100 µM	> 100		> 100		> 100
